This passage reports Ki results from patent US7902238B2, “2-aminooxazolines as TAAR1 ligands” (Hoffmann-La Roche Inc., priority 2007, dated 2011).

Each structure is given as a SMILES string. pKi: −log10 of the molar value.

One assay concerns the target mouse TAAR1 (Mus musculus, UniProt Q923Y8). Briefly: Radioligand binding on membranes of HEK293 cells stably expressing mouse TAAR1.
A further assay addresses rat TAAR1 (Rattus norvegicus, UniProt Q923Y9). Briefly: Radioligand binding on membranes of HEK293 cells stably expressing rat TAAR1.

Chain of rat TAAR1 (Q923Y9 whole entry): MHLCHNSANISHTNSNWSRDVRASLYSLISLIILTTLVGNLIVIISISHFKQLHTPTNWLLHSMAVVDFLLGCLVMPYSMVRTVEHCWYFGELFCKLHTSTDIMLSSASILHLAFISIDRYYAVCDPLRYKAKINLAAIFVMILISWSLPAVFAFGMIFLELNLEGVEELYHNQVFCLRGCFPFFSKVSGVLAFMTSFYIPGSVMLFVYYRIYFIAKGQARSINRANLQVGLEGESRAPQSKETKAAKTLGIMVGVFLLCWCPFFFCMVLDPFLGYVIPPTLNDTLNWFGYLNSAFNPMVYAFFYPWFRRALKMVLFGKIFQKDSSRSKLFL
Chain of mouse TAAR1 (Q923Y8 whole entry): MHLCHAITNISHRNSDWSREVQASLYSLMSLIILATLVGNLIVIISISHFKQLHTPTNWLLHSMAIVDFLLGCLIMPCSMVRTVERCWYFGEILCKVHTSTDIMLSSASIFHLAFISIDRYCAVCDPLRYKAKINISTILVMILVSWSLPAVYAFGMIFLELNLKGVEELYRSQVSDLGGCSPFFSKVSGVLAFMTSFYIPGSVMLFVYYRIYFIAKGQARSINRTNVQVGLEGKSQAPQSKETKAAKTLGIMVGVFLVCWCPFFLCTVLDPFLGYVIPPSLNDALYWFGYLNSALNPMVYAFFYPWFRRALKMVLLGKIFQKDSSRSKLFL

What is called pKi is the negative decadic logarithm of the Ki, by convention in mol/L. Turning to `CCN(C[C@@H]1COC(N)=N1)c1ccccc1` [Example 1, (R)-4-[(Ethyl-phenyl-amino)-methyl]-4,5-dihydro-oxazol-2-ylamine], the pKi was 9.05 at mouse TAAR1 and 8.72 at rat TAAR1.
For `CCN(C[C@H]1COC(N)=N1)c1ccccc1` [Example 3, (S)-4-[(Ethyl-phenyl-amino)-methyl]-4,5-dihydro-oxazol-2-ylamine], the pKi at mouse TAAR1 and on rat TAAR1 was 9.00 each time.
Consider `CN(C[C@H]1COC(N)=N1)c1ccc(Cl)c(Cl)c1` [Example 7, (S)-4-{[(3,4-Dichloro-phenyl)-methyl-amino]-methyl}-4,5-dihydro-oxazol-2-ylamine], for which the results for the pKi at mouse TAAR1 and on rat TAAR1 were 8.85 and 9.52, respectively.
On to `CCN(C[C@H]1COC(N)=N1)c1ccc(Cl)cc1` [Example 11, (S)-4-{[(4-Chloro-phenyl)-ethyl-amino]-methyl}-4,5-dihydro-oxazol-2-ylamine], for which the pKi is 8.46 at mouse TAAR1 and 9.05 at rat TAAR1.
On to `CC(C)N(C[C@H]1COC(N)=N1)c1ccc(Cl)c(Cl)c1` [Example 15, (S)-4-{[(3,4-Dichloro-phenyl)-isopropyl-amino]-methyl}-4,5-dihydro-oxazol-2-ylamine], for which the negative-log Ki (pKi) at mouse TAAR1 was 7.65; on rat TAAR1, 9.10.
On the same counts, the results for `COc1cc(N(C)C[C@H]2COC(N)=N2)ccc1Cl` [Example 27, (S)-4-{[(4-Chloro-3-methoxy-phenyl)-methyl-amino]-methyl}-4,5-dihydro-oxazol-2-ylamine] are 8.14 and 8.80.
Regarding `CCN(C[C@H]1COC(N)=N1)c1ccc(Cl)c(OC)c1` [Example 28, (S)-4-{[(4-Chloro-3-methoxy-phenyl)-ethyl-amino]-methyl}-4,5-dihydro-oxazol-2-ylamine], the values for the pKi on mouse TAAR1 and on rat TAAR1 were 8.64 and 9.22, respectively.
In the case of `CN(C[C@H]1COC(N)=N1)c1ccccc1` [Example 30, (S)-4-[(Methyl-phenyl-amino)-methyl]-4,5-dihydro-oxazol-2-ylamine], the pKi at mouse TAAR1 was 7.79; on rat TAAR1, 8.77.
For the molecule `CN(C[C@H]1COC(N)=N1)c1ccc(Br)cc1` [Example 31, (S)-4-{[(4-Bromo-phenyl)-methyl-amino]-methyl}-4,5-dihydro-oxazol-2-ylamine], the pKi is 8.89 at mouse TAAR1 and 8.72 on rat TAAR1.
On the same counts, the results for `CCN(C[C@H]1COC(N)=N1)c1ccc(Br)cc1` [Example 32, (S)-4-{[(4-Bromo-phenyl)-ethyl-amino]-methyl}-4,5-dihydro-oxazol-2-ylamine] are 8.55 and 9.22.
Consider `CCN(C[C@H]1COC(N)=N1)c1ccc(Cl)c(Cl)c1` [Example 33, (S)-4-{[(3,4-Dichloro-phenyl)-ethyl-amino]-methyl}-4,5-dihydro-oxazol-2-ylamine], for which the pKi at mouse TAAR1 is 8.66; on rat TAAR1 it was 9.70.
For `CN(C[C@H]1COC(N)=N1)c1cccc(Br)c1` [Example 34, (S)-4-{[(3-Bromo-phenyl)-methyl-amino]-methyl}-4,5-dihydro-oxazol-2-ylamine], the negative logarithm of the Ki (pKi) at mouse TAAR1 is 8.92; on rat TAAR1, 8.33.
Take `CCN(C[C@H]1COC(N)=N1)c1cccc(Br)c1` [Example 37, (S)-4-{[(3-Bromo-phenyl)-ethyl-amino]-methyl}-4,5-dihydro-oxazol-2-ylamine]: the pKi was 8.01 at mouse TAAR1 and 8.74 on rat TAAR1.
Turning to `COc1cc(N(C)C[C@H]2COC(N)=N2)ccc1F` [Example 40, (S)-4-{[(4-Fluoro-3-methoxy-phenyl)-methyl-amino]-methyl}-4,5-dihydro-oxazol-2-ylamine], the pKi at mouse TAAR1 was 8.96; at rat TAAR1, 8.70.
On the same counts, the results for `COc1cc(N(Cc2ccccc2)C[C@H]2COC(N)=N2)ccc1F` [Example 42, (S)-4-{[Benzyl-(4-fluoro-3-methoxy-phenyl)-amino]-methyl}-4,5-dihydro-oxazol-2-ylamine] are 7.58 and 8.96.
For the molecule `NC1=N[C@@H](CN(Cc2ccccc2)c2ccc(F)cc2)CO1` [Example 53, (S)-4-{[Benzyl-(4-fluoro-phenyl)-amino]-methyl}-4,5-dihydro-oxazol-2-ylamine], the pKi is 7.73 at mouse TAAR1 and 9.05 on rat TAAR1.
In the case of `NC1=N[C@@H](CN(Cc2ccccc2)c2ccc(Cl)cc2)CO1` [Example 55, (S)-4-[{Benzyl-(4-chloro-phenyl)-amino]-methyl}-4,5-dihydro-oxazol-2-ylamine], the results for the pKi at mouse TAAR1 and on rat TAAR1 were 7.54 and 9.22, respectively.
For `CCN(C[C@H]1COC(N)=N1)c1cccc(C)c1` [Example 65, (S)-4-[(Ethyl-m-tolyl-amino)-methyl]-4,5-dihydro-oxazol-2-ylamine], in that order: 8.72 and 8.57.
On to `CN(C[C@H]1COC(N)=N1)c1ccc2ccccc2c1` [Example 77, (S)-4-[(Methyl-naphthalen-2-yl-amino)-methyl]-4,5-dihydro-oxazol-2-ylamine], for which, at mouse TAAR1, the pKi was 9.40.
In turn, `CCN(C[C@H]1COC(N)=N1)c1cccc(Cl)c1` [Example 83, (S)-4-{[(3-Chloro-phenyl)-ethyl-amino]-methyl}-4,5-dihydro-oxazol-2-ylamine] showed a pKi at rat TAAR1 of 9.00.
Same read-out and setting: as for `NC1=N[C@@H](CNc2cccc(Cl)c2)CO1` [Example 87, (S)-4-[(3-Chloro-phenylamino)-methyl]-4,5-dihydro-oxazol-2-ylamine], the figure is 8.14; as for `CCc1cccc(N(CC)C[C@H]2COC(N)=N2)c1` [Example 92, (S)-4-{[Ethyl-(3-ethyl-phenyl)-amino]-methyl}-4,5-dihydro-oxazol-2-ylamine], 4.43.
In the case of `CCc1ccc(N(CC)C[C@H]2COC(N)=N2)cc1` [Example 94, (S)-4-{[Ethyl-(4-ethyl-phenyl)-amino]-methyl}-4,5-dihydro-oxazol-2-ylamine], at rat TAAR1, the pKi is 4.29.
The molecule `CCN(C[C@H]1COC(N)=N1)c1ccc(Cl)cc1F` [Example 95, (S)-4-{[(4-Chloro-2-fluoro-phenyl)-ethyl-amino]-methyl}-4,5-dihydro-oxazol-2-ylamine] showed a pKi at rat TAAR1 of 8.82.
On to `CCN(C[C@H]1COC(N)=N1)c1ccc2c(c1)CCC2` [Example 99, (S)-4-[(Ethyl-indan-5-yl-amino)-methyl]-4,5-dihydro-oxazol-2-ylamine], for which the pKi at mouse TAAR1 is 8.22; on rat TAAR1, 8.49.
In the case of `CN(C[C@H]1COC(N)=N1)c1ccc(Cl)cc1F` [Example 100, (S)-4-{[(4-Chloro-2-fluoro-phenyl)-methyl-amino]-methyl}-4,5-dihydro-oxazol-2-ylamine], the pKi at mouse TAAR1 was 8.57; on rat TAAR1, 8.52.
On the same counts, the results for `CN(C[C@H]1COC(N)=N1)c1cccc(-c2cnco2)c1` [Example 105, (S)-4-{[Methyl-(3-oxazol-5-yl-phenyl)-amino]-methyl}-4,5-dihydro-oxazol-2-ylamine] are 8.42 and 7.20.
Regarding `CCN(C[C@H]1COC(N)=N1)c1cccc(-c2cnco2)c1` [Example 106, (S)-4-{[Ethyl-(3-oxazol-5-yl-phenyl)-amino]-methyl}-4,5-dihydro-oxazol-2-ylamine], the pKi was 8.39 at mouse TAAR1 and 7.73 on rat TAAR1.
On the same counts, the results for `CCN(C[C@H]1COC(N)=N1)c1ccccc1F` [Example 107, (S)-4-{[Ethyl-(2-fluoro-phenyl)-amino]-methyl}-4,5-dihydro-oxazol-2-ylamine] are 8.41 and 7.83.
For `CCN(C[C@H]1COC(N)=N1)c1cc(F)cc(C(F)(F)F)c1` [Example 109, (S)-4-{[Ethyl-(3-fluoro-5-trifluoromethyl-phenyl)-amino]-methyl}-4,5-dihydro-oxazol-2-ylamine], the values for the pKi on mouse TAAR1 and on rat TAAR1 were 8.60 and 8.77, respectively.
For `CCN(C[C@H]1COC(N)=N1)c1ccccc1Cl` [Example 111, (S)-4-{[(2-Chloro-phenyl)-ethyl-amino]-methyl}-4,5-dihydro-oxazol-2-ylamine], the pKi on mouse TAAR1 was 8.22; at rat TAAR1, 7.23.
On to `Cc1ccc(N(C)C[C@H]2COC(N)=N2)c(F)c1` [Example 113, (S)-4-{[(2-Fluoro-4-methyl-phenyl)-methyl-amino]-methyl}-4,5-dihydro-oxazol-2-ylamine], for which the pKi at mouse TAAR1 was 8.55; at rat TAAR1, 8.21.
Regarding `Cc1ccc(NC[C@H]2COC(N)=N2)c(F)c1` [Example 117, (S)-4-[(2-Fluoro-4-methyl-phenylamino)-methyl]-4,5-dihydro-oxazol-2-ylamine], the results for the pKi on mouse TAAR1 and on rat TAAR1 were 8.55 and 7.74, respectively.
Regarding `NC1=N[C@@H](CNc2ccccc2Cl)CO1` [Example 119, (S)-4-[(2-Chloro-phenylamino)-methyl]-4,5-dihydro-oxazol-2-ylamine], the pKi is 8.96 at mouse TAAR1 and 8.38 at rat TAAR1.
For `CN(C[C@@H]1COC(N)=N1)c1ccc(Cl)cc1` [Example 125, (R)-4-{[(4-Chloro-phenyl)-methyl-amino]-methyl}-4,5-dihydro-oxazol-2-ylamine], in that order: 8.64 and 8.25.
As for `CCN(C[C@@H]1COC(N)=N1)c1ccc(Cl)cc1` [Example 126, (R)-4-{[(4-Chloro-phenyl)-ethyl-amino]-methyl}-4,5-dihydro-oxazol-2-ylamine], the pKi on mouse TAAR1 was 8.80; on rat TAAR1 it was 8.92.
On the same counts, the results for `NC1=N[C@@H](CNc2ccc(C(F)(F)F)c(F)c2)CO1` [Example 127, (S)-4-[(3-Fluoro-4-trifluoromethyl-phenylamino)-methyl]-4,5-dihydro-oxazol-2-ylamine] are 8.34 and 7.80.
On the same counts, the results for `CN(C[C@@H]1COC(N)=N1)c1ccc(F)cc1` [Example 128, (R)-4-{[(4-Fluoro-phenyl)-methyl-amino]-methyl}-4,5-dihydro-oxazol-2-ylamine] are 8.33 and 7.94.
For `CC(C)N(C[C@@H]1COC(N)=N1)c1ccc(Cl)cc1` [Example 129, (R)-4-{[(4-Chloro-phenyl)-isopropyl-amino]-methyl}-4,5-dihydro-oxazol-2-ylamine], in that order: 8.06 and 8.57.
